The test system of assay [1] is wild-type HIV-1 (HIV-1LAI) in H9 cells (non-permissive). Nature of the assay: microbe, parasite or virus in culture. The class given is cell-based.
Assay [2] relates to wild-type HIV-1 (HIV-1LAI) in MT-4 cells (permissive). The assay can be described thus: Antiviral activity assay: wild-type HIV-1 in permissive MT4 cells, reverse transcriptase activity in culture supernatants. The class given is cell-based.
The mark [3] stands for this setting: Human immunodeficiency virus 1, H9, read-out: Antiviral activity (IC50 μM) H9, Table 2, wild-type HIV-1, non-permissive H9 cells.
[4] abbreviates: Human immunodeficiency virus 1, H9, read-out: Antiviral activity (IC50 μM) H9 Cells, Table 4, wild-type HIV-1, non-permissive H9 cells.
Where [5] appears, read: Human immunodeficiency virus 1, H9, read-out: Antiviral activity (IC50 μM) H9 Cells, Table 7, wild-type HIV-1, non-permissive H9 cells.
Setting [6] is: Human immunodeficiency virus 1, H9, read-out: Antiviral activity (IC50 μM) H9 cells, Table 5, wild-type HIV-1, non-permissive H9 cells.
The mark [7] stands for this setting: Human immunodeficiency virus 1, H9, read-out: Antiviral activity (IC50 μM) H9 cells, Table 8, wild-type HIV-1, non-permissive H9 cells.
The mark [8] stands for this setting: Human immunodeficiency virus 1, H9, read-out: Antiviral activity (IC50 μM) H9 cells, wild-type HIV-1 (HIV-1LAI), H9 cells (non-permissive), RT activity in culture supernatants, compounds 1 to 50 μM.
Setting [9] is: Human immunodeficiency virus 1, MT4, Table 2, wild-type HIV-1, permissive MT4 cells, read-out: Antiviral activity (IC50 μM) MT4.
The mark [10] stands for this setting: Human immunodeficiency virus 1, MT4, wild-type HIV-1 (HIV-1LAI), MT4 cells (permissive), RT activity in culture supernatants, compounds 1 to 50 μM, read-out: Antiviral activity (IC50 μM) MT4 cells.
Setting [11] is: Human immunodeficiency virus 1, H9, read-out: IC50, anti-HIV-1 activity, non-permissive H9 cells.

Read-outs that look alike come from different tables or passages of the source. Where only a bound is given, the exact number is not on record here.

A word on the IC50: it is the concentration at which inhibition is half-maximal. Turning to `COC(=O)c1ccc(S(=O)(=O)c2ccccc2-c2cn(-c3cccc(OC)c3OC)nn2)cc1` [Compound 3by, Methyl 4-((2-(1-(2,3-dimethoxyphenyl)-1H-1,2,3-triazol-4-yl)phenyl)sulfonyl)benzoate], the IC50 in assay [1] (setting [3]), in assay [1] (setting [4]), in assay [1] (setting [5]), in assay [1] (setting [6]), in assay [1] (setting [7]) and in assay [1] (setting [8]) was 4.7 µM throughout. The IC50 in assay [2] (setting [9]) and in assay [2] (setting [10]) was greater than 50 µM throughout.

Turning to `COc1cccc(-n2cc(-c3ccccc3Sc3ccc(C(F)(F)F)cc3)nn2)c1OC` [Compound 3dx, 1-(2,3-Dimethoxyphenyl)-4-(2-((4-(trifluoromethyl)phenyl)thio)phenyl)-1H-1,2,3-triazole], the IC50 in assay [1] (setting [3]), in assay [1] (setting [4]), in assay [1] (setting [5]), in assay [1] (setting [6]), in assay [1] (setting [7]) and in assay [1] (setting [8]) was 1.9 µM in each case. The IC50 is 1 to 3 µM in assay [1] (setting [11]), greater than 50 µM in assay [2] (setting [9]) and greater than 50 µM in assay [2] (setting [10]).

`COc1ccc(S(=O)(=O)c2ccccc2-c2cn(-c3ccc(OC)cc3OC)nn2)cc1` [Compound 4cy, 1-(2,4-Dimethoxyphenyl)-4-(2-((4-methoxyphenyl)sulfonyl)phenyl)-1H-1,2,3-triazole]: the IC50 in assay [1] (setting [3]), in assay [1] (setting [6]), in assay [1] (setting [7]), in assay [1] (setting [8]), in assay [2] (setting [9]) and in assay [2] (setting [10]) was greater than 50 µM in each case.

Consider `COC(=O)c1ccc(Sc2ccccc2-c2cn(-c3c(F)cccc3OC)nn2)cc1` [Compound 7bx, Methyl 4-((2-(1-(2-fluoro-6-methoxyphenyl)-1H-1,2,3-triazol-4-yl)phenyl)thio)benzoate], for which the IC50 in assay [1] (setting [3]), in assay [1] (setting [4]), in assay [1] (setting [5]), in assay [1] (setting [6]), in assay [1] (setting [7]) and in assay [1] (setting [8]) was 7.8 µM throughout. Further, the IC50 in assay [2] (setting [9]) and in assay [2] (setting [10]) was greater than 50 µM in each case.

As to `COC(=O)c1ccc(Sc2ccccc2-c2cn(-c3ccccc3OC)nn2)cc1` [Compound 2bx, Methyl 4-((2-(1-(2-methoxyphenyl)-1H-1,2,3-triazol-4-yl)phenyl)thio)benzoate], the IC50 in assay [1] (setting [3]), in assay [1] (setting [6]), in assay [1] (setting [7]), in assay [1] (setting [8]), in assay [2] (setting [9]) and in assay [2] (setting [10]) was greater than 50 µM in each case.

`COc1ccc(OC)c(-n2cc(-c3ccccc3Sc3ccc(C(=O)O)cc3)nn2)c1` [Compound 5fx, 4-((2-(1-(2,5-Dimethoxyphenyl)-1H-1,2,3-triazol-4-yl)phenyl)thio)benzoic Acid]: the IC50 in assay [1] (setting [3]), in assay [1] (setting [4]), in assay [1] (setting [5]), in assay [1] (setting [6]), in assay [1] (setting [7]) and in assay [1] (setting [8]) was 4.5 µM in each case. Besides, the IC50 in assay [2] (setting [9]) and in assay [2] (setting [10]) was greater than 50 µM each time.

Take `COc1ccc(OC)c(-n2cc(-c3ccccc3S(=O)(=O)c3ccc(C(=O)O)cc3)nn2)c1` [Compound 5fy, 4-((2-(1-(2,5-Dimethoxyphenyl)-1H-1,2,3-triazol-4-yl)phenyl)sulfonyl)benzoic Acid]: the IC50 in assay [1] (setting [3]), in assay [1] (setting [6]), in assay [1] (setting [7]), in assay [1] (setting [8]), in assay [2] (setting [9]) and in assay [2] (setting [10]) was greater than 50 µM throughout.

Turning to `COc1ccccc1-n1cc(-c2ccccc2S(=O)(=O)c2ccc(C(F)(F)F)cc2)nn1` [Compound 2dy, 1-(2-Methoxyphenyl)-4-(2-((4-(trifluoromethyl)phenyl)sulfonyl)phenyl)-1H-1,2,3-triazole], the IC50 in assay [1] (setting [3]), in assay [1] (setting [4]), in assay [1] (setting [5]), in assay [1] (setting [6]), in assay [1] (setting [7]) and in assay [1] (setting [8]) was 4.8 µM each time. Also, the concentration for half-maximal inhibition (IC50) in assay [2] (setting [9]) and in assay [2] (setting [10]) was greater than 50 µM in each case.

For `COc1cccc(F)c1-n1cc(-c2ccccc2S(=O)(=O)c2ccc([N+](=O)[O-])cc2)nn1` [Compound 7ay, 1-(2-Fluoro-6-methoxyphenyl)-4-(2-((4-nitrophenyl)sulfonyl)phenyl)-1H-1,2,3-triazole], the IC50 in assay [1] (setting [3]), in assay [1] (setting [6]), in assay [1] (setting [7]), in assay [1] (setting [8]), in assay [2] (setting [9]) and in assay [2] (setting [10]) was greater than 50 µM in each case.

In the case of `COc1cccc(OC)c1-n1cc(-c2ccccc2S(=O)(=O)c2ccc([N+](=O)[O-])cc2)nn1` [Compound 6ay, 1-(2,6-Dimethoxyphenyl)-4-(2-((4-nitrophenyl)sulfonyl)phenyl)-1H-1,2,3-triazole], the IC50 in assay [1] (setting [3]), in assay [1] (setting [6]), in assay [1] (setting [7]), in assay [1] (setting [8]), in assay [2] (setting [9]) and in assay [2] (setting [10]) was greater than 50 µM each time.

Consider `COc1ccc(-n2cc(-c3ccccc3Sc3ccc(C(=O)O)cc3)nn2)c(OC)c1` [Compound 4fx, 4-((2-(1-(2,4-Dimethoxyphenyl)-1H-1,2,3-triazol-4-yl)phenyl)thio)benzoic Acid], for which the concentration for half-maximal inhibition (IC50) in assay [1] (setting [3]), in assay [1] (setting [4]), in assay [1] (setting [5]), in assay [1] (setting [6]), in assay [1] (setting [7]) and in assay [1] (setting [8]) was 7.1 µM throughout. Further, the IC50 in assay [2] (setting [9]) and in assay [2] (setting [10]) was greater than 50 µM each time.

Turning to `COc1cccc(F)c1-n1cc(-c2ccccc2Sc2ccc(N)cc2)nn1` [Compound 7ex, 4-((2-(1-(2-Fluoro-6-methoxyphenyl)-1H-1,2,3-triazol-4-yl)phenyl)thio)aniline], the IC50 in assay [1] (setting [3]), in assay [1] (setting [6]), in assay [1] (setting [7]), in assay [1] (setting [8]), in assay [2] (setting [9]) and in assay [2] (setting [10]) was greater than 50 µM in each case.

In the case of `COc1cccc(F)c1-n1cc(-c2ccccc2S(=O)(=O)c2ccc(C(F)(F)F)cc2)nn1` [Compound 7dy, 1-(2-Fluoro-6-methoxyphenyl)-4-(2-((4-(trifluoromethyl)phenyl)sulfonyl)phenyl)-1H-1,2,3-triazole], the IC50 in assay [1] (setting [3]), in assay [1] (setting [6]), in assay [1] (setting [7]), in assay [1] (setting [8]), in assay [2] (setting [9]) and in assay [2] (setting [10]) was greater than 50 µM in each case.

As to `COc1cccc(F)c1-n1cc(-c2ccccc2S(=O)(=O)c2ccc(N)cc2)nn1` [Compound 7ey, 4-((2-(1-(2-Fluoro-6-methoxyphenyl)-1H-1,2,3-triazol-4-yl)phenyl)sulfonyl)aniline], the IC50 in assay [1] (setting [3]), in assay [1] (setting [4]), in assay [1] (setting [5]), in assay [1] (setting [6]), in assay [1] (setting [7]) and in assay [1] (setting [8]) was 15 µM each time. The IC50 in assay [2] (setting [9]) and in assay [2] (setting [10]) was greater than 50 µM in each case.

On to `COc1cccc(OC)c1-n1cc(-c2ccccc2S(=O)(=O)c2ccc(N)cc2)nn1` [Compound 6ey, 4-((2-(1-(2,6-Dimethoxyphenyl)-1H-1,2,3-triazol-4-yl)phenyl)sulfonyl)aniline], for which the IC50 in assay [1] (setting [3]), in assay [1] (setting [4]), in assay [1] (setting [5]), in assay [1] (setting [6]), in assay [1] (setting [7]) and in assay [1] (setting [8]) was 1.5 µM each time. Moreover, the figures for the IC50 in assay [1] (setting [11]), in assay [2] (setting [9]) and in assay [2] (setting [10]) were 1 to 3 µM, greater than 50 µM and greater than 50 µM, respectively.

Turning to `COC(=O)c1ccc(Sc2ccccc2-c2cn(-c3cccc(OC)c3OC)nn2)cc1` [Compound 3bx, Methyl 4-((2-(1-(2,3-dimethoxyphenyl)-1H-1,2,3-triazol-4-yl)phenyl)thio)benzoate], the IC50 in assay [1] (setting [3]), in assay [1] (setting [4]), in assay [1] (setting [5]), in assay [1] (setting [6]), in assay [1] (setting [7]) and in assay [1] (setting [8]) was 8 µM throughout. The IC50 in assay [2] (setting [9]) and in assay [2] (setting [10]) was greater than 50 µM in each case.

On to `COc1cccc(OC)c1-n1cc(-c2ccccc2Sc2ccc(N)cc2)nn1` [Compound 6ex, 4-((2-(1-(2,6-Dimethoxyphenyl)-1H-1,2,3-triazol-4-yl)phenyl)thio)amine], for which the IC50 is 1.5 µM in assay [1] (setting [4]); 1.5 µM in assay [1] (setting [5]); 1.5 µM in assay [1] (setting [6]); 1.5 µM in assay [1] (setting [7]); 1.5 µM in assay [1] (setting [8]); 1 to 3 µM in assay [1] (setting [11]).

Turning to `COc1cccc(F)c1-n1cc(-c2ccccc2Sc2ccc(C(=O)O)cc2)nn1` [Compound 7gx, 2-Hydroxy-N,N,N-trimethylethanaminium 4-((2-(1-(2-fluoro-6-methoxyphenyl)-1H-1,2,3-triazol-4-yl)phenyl)thio)benzoate], the IC50 in assay [1] (read-out: Antiviral activity (IC50 μM) H9 cells, Table 5, wild-type HIV-1, non-permissive H9 cells) is greater than 50 µM; in assay [1] (read-out: Antiviral activity (IC50 μM) H9 cells, Table 8, wild-type HIV-1, non-permissive H9 cells), greater than 50 µM; in assay [1] (read-out: Antiviral activity (IC50 μM) H9 cells, wild-type HIV-1 (HIV-1LAI), H9 cells (non-permissive), RT activity in culture supernatants, compounds 1 to 50 μM), greater than 50 µM.

These data come from US11136301B2, “Broad spectrum antiviral compounds and uses thereof” (The Regents Of The University Of California, priority 2015, dated 2021).
